# In patent US20060078622A1, “Pharmaceutical formulations containing microparticles or nanoparticles of a delivery agent” (priority 2004, published 2006):
# Experiments:
# [1] = acid and salts; cited from earlier work
# [2] = Particle size determination by laser diffraction (Malvern Mastersizer 2000); format: physicochemical
# Protocol: The terms “diameter” and “median particle size” are generally used to refer to the dimensions of particles, micro-beads, and granules. The “median particle size” or “diameter” was determined as follows for Examples 8, 9, 10.
# The Malvern Mastersizer 2000 determines particle size by laser diffraction and model fitting. A well-dispersed sample in any two-phase system (e.g., powders, suspensions, or emulsions) is introduced into the path of a He—Ne laser focused with a lens of a length suitable for particle sizes present in the sample. The scattering pattern of particles in the laser path is measured by an array of detectors, with each detector measuring data from a particular range of angles.
# The Malvern apparatus assumes that the particles being measured are perfect spheres. For non-spherical particles the resulting particle size distribution may be different from those obtained by methods based on others principles. The electronic measurements will often have to be accompanied by microscopic investigation to determine the type of particles being investigated. For irregularly shaped particles, the particle size data obtained from Mastersizer 2000 will be interpreted as the diameter of an imaginary sphere that is equivalent in volume to the measured particle. (Note: d(0.1) is the size of particle for which 10% of the sample is below this size, d(0.5) is the size of particle for which 50% of the sample is below this size, and d(0.9) is the size of particle for which 90% of the sample is below this size.
# Generally, this apparatus measures one dimension of a, e.g., particle as it travels past a laser; i.e., it measures the length of a straight line through the particle. […] However, a measurement is taken of a number of particles and a median diameter or size is calculated. Thus, “size” or “diameter” figures are estimates of the median “size” or “diameter” of particles. Alternatively, “diameter” or “size” was measured by a sieve method described in Example 1. “Diameter” should not be read to necessarily imply a spherical shape or a circular dimension, though in certain embodiments, e.g., particles may have rounded edges or generally spherical shapes.
# (§1) SNAD was screened through a 35 mesh Tyler standard sieve. The SNAD was milled with a Glen Mills, Model S100 centrifugal ball mill (Clifton, N.J.) equipped with a 250 mL stainless steel grinding jar and 30 mm (440 c) diameter stainless steel balls was used. The process parameters investigated were (1) number of balls used, (2) duration of milling, (3) milling speed, and (4) milling jar total charge. A Malvern Mastersizer 2000 equipped with a Scirocco 2000 dry accessory was used for particle size determination. A Kratos XRD 6000 (version 4.1) X-ray powder diffractometer scanning over the 2θ range 5-40° 2θ was used for monitoring crystallinity changes. The diverging, scattering, and receiving slits were 1°, 1°, and 0.3 mm respectively. A Brinkmann 737 KF coulometer was used for moisture content determination while a Quantachrome Nova 3000 Series Surface Area Analyzer was used for specific surface area determination.
# [3] = in vivo; cited from earlier work
# [4] = X-ray powder diffraction and Karl Fischer moisture content after milling; format: physicochemical; settings: ball milled
# Protocol: as §1, with “The diverging, scattering, and receiving slits were 1°, 1°, and 0.3 mm respectively.” left out
# [5] = ball milled, milling time of 120 minutes
compound,measurement,setting,value
"O=C(O)CCCCCCCNC(=O)c1cc(Cl)ccc1O [5 CNAC acid, N-(5-chlorosalicyloyl)-8-aminocaprylic acid]",water solubility,[1],very water soluble
"O=C([O-])CCCCCCCNC(=O)c1ccccc1O.[Na+] [SNAC, monosodium salt of N-(8-[2-hydroxybenzoyl]-amino)caprylic acid]",particle size d(0.5),"[2]; micronized, 2 balls at 200 rpm for 120 minutes",7.574 μm
"O=C(O)CCCCCCCCCNC(=O)c1ccccc1O [SNAD acid, N-(10-[2-hydroxybenzoyl]-amino) decanoic acid]",absorbed by the gastro-intestinal tract,[3],greater than 90%
"O=C([O-])CCCCCCCCCNC(=O)c1ccccc1O.[Na+] [SNAD, monosodium salt of N-(10-[2-hydroxybenzoyl]-amino)decanoic acid]",particle size d(0.9),[2]; ball milled at 300 rpm,62.9 μm
same,particle size d(0.1),"[2]; ball milled, 2 balls",1.1 μm
same,particle size d(0.5),"[2]; ball milled, 2 balls",12.0 μm
same,particle size d(0.9),"[2]; ball milled, 2 balls",154.3 μm
same,particle size d(0.1),[2]; [5],2.0 μm
same,particle size d(0.5),[2]; [5],15.4 μm
same,particle size d(0.9),[2]; [5],62.9 μm
same,particle size d(0.1),[2]; pre-screened (unmilled),1.6 μm
same,particle size d(0.5),[2]; pre-screened (unmilled),10.5 μm
same,particle size d(0.9),[2]; pre-screened (unmilled),314.9 μm
same,changes in moisture content on milling (Karl Fischer),[4],no significant changes in moisture content
same,crystallinity changes on milling (powder X-ray diffraction),[4],did not result in crystallinity changes
